Where “and” joins values, the source holds several entries; their conditions need not be identical. Equal entries are not always repeated. Peptide text beside a SMILES is read from it. * marks the point of attachment. Cbz = O=C(OCc1ccccc1)*
Columns and labels:
[1] = test system: mouse lung; experiment: rAAV (AV.LacZ) gene transfer in mouse lung in vivo; design: species or system BALB/c mice
Experimental: FIGS. 17A–F. Persistent induction of rAAV mediated gene transfer in mouse conducting airways by proteasome inhibitors. FIGS. 17A–C) Recombinant AV.Alkphos (5×10^10 particles) was administered to mouse lung either as virus alone in PBS or virus in combination with 40 μM LLnL in PBS. Virus was directly instilled into […] mice trachea with a 30 G needle in a total volume of 30 μl. To insure the spread of the virus in mouse lung, 50 μl air was pumped into lung through the same syringe immediately after virus was administered. Ninety days after infection, lungs were harvested intact and fixed in 4% paraformaldehyde followed by cryosection. AAV-mediated transgene expression was evaluated by 10 μm tissue sections staining for heat-resistant alkaline phosphatase. FIG. 17A: infection with AAV alone; FIGS. 17B and 17C: infection with AAV supplemented with 40 µM of LLnL. FIGS. 17D–F) 6 week old BALB/c mouse (N=3 animals in each group) were infected with 5×10^10 DNA particles of AV.LacZ in the absence or presence of 400 μM Z-LLL by nasal instillation. Representative examples of histochemical staining for LacZ expression in large bronchioles 150 days post-infection are shown in FIGS. 17D and 17E. The right and left sides of each panel represent Nomarski and bright field photomicrographs, respectively. The 100 μm scale bar applies to all photomicrographs. The mean (+/−SEM) percentage of LacZ expressing epithelial cells at various levels of the airway was quantitated using the morphometric procedures outlined in the methods, and the analysis represents results from three independent animals for each group (FIG. 17F).
In vivo studies in mice. Animal studies were performed in accordance with the institutional guidelines of the University of Iowa To determine the effect of the proteasome inhibitor on AAV mediated gene transfer in mouse lung, 6 week-old BALB/c mice were lightly anesthetized using a methoxyflurane chamber. AV.LacZ (5×10^10 particles) was administered alone or with 400 μM Z-LLL in a 10 μl instillation by nasal aspiration as described by Walters et al. (2000). To prevent unforeseen toxicity of DMSO solvent, the proteasome inhibitor Z-LLL was dissolved in ethanol as a 40 mM stock solution and was included in the viral inoculum at 1% final concentration. Viral infection controls in the absence of Z-LLL also contained a 1% final concentration of ethanol. […] The trachea was intubated and instilled at 10 cm of water pressure with the following solutions in order: PBS, 0.5% glutaraldehyde, 1 mM MgCl2/PBS, and finally X-gal staining reagent for an overnight incubation at room temperature. The X-gal stained mouse lungs were then post fixed in 10% neutral buffered formalin for 48 hours at room temperature and cryopreserved in serial 10%, 20% and 30% sucrose/PBS solutions. Lungs (N=3 for each condition) were embedded in OCT (optimal cutting temperature; Baxter, Warrendale, Pa.) and 15 μm serially sections were analyzed for gene transfer by calculating the percentage of positive cells in the airway epithelium. The diameter of the airway was recorded for classification (>360 μm, 260–350 μm, 160–250 μm, <150 μm) of results following morphometric analysis. Greater than 150 airway cross-sections were quantified for each experimental condition.

[2] = Solubility in ethanol; assay type: physicochemical

Compound | airway cells transduced by AV.LacZ, average ([1]; 400 μM Z-LLL intranasal with 5×10^10 particles, 150 days) | airway cells in the smaller bronchioles (<150 mm) expressing β-galactosidase ([1]; 400 μM Z-LLL, 150 days) [%] | transduction of lung, in words ([1]; 400 μM Z-LLL, 150 days) | transduction efficiency in larger bronchioles (>350 mm), mean % of airway epithelium ([1]; 400 μM Z-LLL, 150 days post-infection) | transgene expression (X-gal staining) in lung ([1]; 3 and 10 days post infection) | solubility in ethanol [2]
CC(C)C[C@@H](C=O)NC(=O)[C@H](CC(C)C)NC(=O)[C@H](CC(C)C)NC(=O)OCc1ccccc1 [Z-LLL, N-carbobenzoxyl-L-leucinyl-L-leucinyl-L-leucinal] (Cbz-Leu-Leu-Leu-aldehyde) | about 5.88% | 1.37±0.41 | significant transduction was achieved | 10.36±1.63% and 10.36+/−1.63% | no detectable transgene expression | –
N-acetyl-L-leucinyl-L-leucinal-L-norleucinal [LLnL] | – | – | – | – | – | poor solubility
